Laboratory results reported in patent publication US9427425B2, “Extracts, fractions and compositions comprising acetogenins and their applications” (LAILA NUTRACEUTICALS, priority 2009, dated 2016).

Columns and labels:
[1] = system: TNFα; assay: Inhibition of LPS induced TNFα in THP-1 human monocytes (EIA); type: cell-based
Description: Inhibition of Tumor necrosis factor-α (TNF-α) in vitro by extracts, fractions and compounds of Annona squamosa: The anti-inflammatory activities of extracts, fractions and compounds of Annona squamosa were assessed in a cell based in vitro assay. Briefly, THP-1 human monocytes cells were washed and re-suspended in phenol red free Dulbecco's Modified Eagle's Medium (DMEM) supplemented with 1% fetal Bovine serum (FBS). Equal number of cells was added to each well of a 96-well TC plate and the cells were pretreated for 2 h with various concentrations (ranging from 0.1 to 200 ng/mL; solutions prepared in culture medium from a stock solution containing 50 mg/l mL DMSO of each test compound) of extracts, fractions and compounds of Annona squamosa. The inflammatory response was induced by 100 ng/mL of LPS for 4 h at 37° C. in presence of 5% CO2. The vehicle control culture wells received 0.1% DMSO in culture medium. The cell culture supernatants were collected and assessed for secretory pro-inflammatory cytokine, TNFα. The TNFα concentration was quantitatively measured by highly specific and sensitive Enzyme Immuno Assay (EIA) kit supplied by R&D Systems, USA. The enzyme immuno assay was performed based on the protocol provided by the vendor. The inhibitory concentration for 50% inhibition (IC50) of TNFα was determined from a plot drawn for ingredient concentrations against corresponding TNFα levels. […] Table 1 is a summary of 50% inhibitory (IC50) concentrations of various extracts, fractions and compounds derived from Annona squamosa plant parts in cell based in vitro model.

[2] = system: IL-1β; assay: Serum cytokine multiplex assay in FCA induced rats: IL-1β; type: in vivo, Sprague Dawley rats; details: 10 mg/kg; vehicle control = 1.000
Source text: (§1) Further, the levels of a wide range of cytokine biomarkers were estimated in the serum of the treatment groups supplemented with LI12100 and the control group using multiplex assay (RCYTOMAG 80K) following the instructions provided by the vendor (Millipore Corporation, Billerica, Mass., USA). […] The cytokines modulated by LI12100 include TNFα, IFNγ, IL-1β, IL-2, IL-4, IL-6, IL-13, MCP-1, Rantes and Eotaxin.
as §1, with “groups” for “groups supplemented with LI12100”, “ameliorated” for “modulated”, “Eotaxin as summarized in Table 3.” for “Eotaxin.”

[3] = system: IL-4; assay: Serum cytokine multiplex assay in FCA induced rats: IL-4; type: in vivo, Sprague Dawley rats; details: 10 mg/kg; vehicle control = 1.000
Source text: as §1
as §1, with “groups” for “groups supplemented with LI12100”, “ameliorated” for “modulated”, “Eotaxin as summarized in Table 3.” for “Eotaxin.”

[4] = system: IL-13; assay: Serum cytokine multiplex assay in FCA induced rats: IL-13; type: in vivo, Sprague Dawley rats; details: 10 mg/kg; vehicle control = 1.000
Source text: as §1
as §1, with “groups” for “groups supplemented with LI12100”, “ameliorated” for “modulated”, “Eotaxin as summarized in Table 3.” for “Eotaxin.”

[5] = system: Rantes; assay: Serum cytokine multiplex assay in FCA induced rats: Rantes; type: in vivo, Sprague Dawley rats; details: 10 mg/kg; vehicle control = 1.000
Source text: as §1
as §1, with “groups” for “groups supplemented with LI12100”, “ameliorated” for “modulated”, “Eotaxin as summarized in Table 3.” for “Eotaxin.”

[6] = system: IL-2; assay: Serum cytokine multiplex assay in FCA induced rats: IL-2; type: in vivo, Sprague Dawley rats; details: 10 mg/kg; vehicle control = 1.000
Source text: as §1
as §1, with “groups” for “groups supplemented with LI12100”, “ameliorated” for “modulated”, “Eotaxin as summarized in Table 3.” for “Eotaxin.”

[7] = system: TNFα; assay: Serum TNFα in FCA challenged rats (enzyme-immuno assay kit); type: in vivo, Sprague Dawley rats; details: 10 mg/kg
Description: After 14 days of FCA challenge, serum TNFα was quantitatively measured by enzyme-immuno assay kit (R&D Systems, USA). The bars a, b and c represent the levels of the cytokines in groups supplemented with control, LI12101 (100 mg/kg) and prednisolone (10 mg/kg) respectively. Each bar represents mean±SD, N=6. * p<0.05 and ** p<0.005 (vs. control).
After 14 days of FCA challenge, serum TNFα[…] was quantitatively measured by enzyme-immuno assay kit (R&D Systems, USA). The bars represent the levels of the cytokines in groups supplemented with control, LI12100 at 50 mg/kg body weight, LI12100 at 100 mg/kg body weight and prednisolone (10 mg/kg) respectively. Each bar represents mean±SD, N=6.
The levels of cytokine tumor necrosis factor alpha (TNFα) were evaluated in blood serum collected 13 days after FCA challenge. The serum cytokine levels were measured using enzyme-immune assay kit supplied by R & D systems, USA.
The levels of cytokine tumor necrosis factor-alpha (TNFα) were evaluated in blood serum collected 14 days after FCA challenge. The serum cytokine levels were measured using enzyme-immune assay kit supplied by R & D systems, USA.

[8] = system: MCP-1; assay: Serum cytokine multiplex assay in FCA induced rats: MCP-1; type: in vivo, Sprague Dawley rats; details: 10 mg/kg; vehicle control = 1.000
Source text: as §1
as §1, with “groups” for “groups supplemented with LI12100”, “ameliorated” for “modulated”, “Eotaxin as summarized in Table 3.” for “Eotaxin.”

[9] = system: IFNγ; assay: Serum cytokine multiplex assay in FCA induced rats: IFNγ; type: in vivo, Sprague Dawley rats; details: 10 mg/kg; vehicle control = 1.000
Source text: as §1
as §1, with “groups” for “groups supplemented with LI12100”, “ameliorated” for “modulated”, “Eotaxin as summarized in Table 3.” for “Eotaxin.”

[10] = system: Eotaxin; assay: Serum cytokine multiplex assay in FCA induced rats: Eotaxin; type: in vivo, Sprague Dawley rats; details: 10 mg/kg; vehicle control = 1.000
Source text: as §1
as §1, with “groups” for “groups supplemented with LI12100”, “ameliorated” for “modulated”, “Eotaxin as summarized in Table 3.” for “Eotaxin.”

[11] = system: IL-6; assay: Serum cytokine multiplex assay in FCA induced rats: IL-6; type: in vivo, Sprague Dawley rats; details: 10 mg/kg; vehicle control = 1.000
Source text: as §1
as §1, with “groups” for “groups supplemented with LI12100”, “ameliorated” for “modulated”, “Eotaxin as summarized in Table 3.” for “Eotaxin.”

[12] = system: Freund's Complete Adjuvant induced paw edema; assay: Freund's Complete Adjuvant induced arthritis model, paw edema; type: in vivo, Sprague Dawley rats; details: 10 mg/kg positive control
Description: The potent in vitro anti-inflammatory efficacy shown by the Annona squamosa leaf ethyl acetate extract (LI12101; standardized to 0.2% squamocin C) was then tested in an in vivo system using Freund's Complete Adjuvant induced arthritis model of Sprague Dawley rats. The anti-inflammatory efficacy of LI12101 (100 mg/kg body weight per day) was evaluated in Freund's Complete Adjuvant induced arthritis model of Sprague Dawley rats and compared its efficacy with that shown by the positive control group supplemented with Prednisolone at 10 mg/kg body weight. The treatment group rats were supplemented daily with LI12101 or prednisolone. […] Blood samples were collected from each animal at regular intervals and paw volumes were measured by Plethysmography equipment on the day of FCA injection and after 13 days of FCA inoculation. […]
To further confirm the in vivo anti-inflammatory activity and study the dose dependent effect, the methanol extract of Annona squamosa leaves (LI12100; standardized to 0.24% squamocin C) was evaluated in Freund's Complete Adjuvant induced arthritis model of Sprague Dawley rats. The anti-inflammatory efficacy of LI12100 (at 50 mg/kg and 100 mg/kg body weight per day) was evaluated in FCA induced arthritis model of Sprague Dawley rats and compared its efficacy with that shown by the positive control group supplemented with Prednisolone at 10 mg/kg body weight. […]

[13] = system: TNFα; assay: Serum cytokine multiplex assay in FCA induced rats: TNFα; type: in vivo, Sprague Dawley rats; details: 10 mg/kg; vehicle control = 1.000
Source text: as §1
as §1, with “groups” for “groups supplemented with LI12100”, “ameliorated” for “modulated”, “Eotaxin as summarized in Table 3.” for “Eotaxin.”

[14] = LPS induced THP-1 human monocytes

Compound: CCCCCCCCCC[C@H](O)[C@@H]1CC[C@@H]([C@H](O)CC[C@@H](O)[C@@H]2CC[C@@H](CCCCCCCCCC3=C[C@@H](C)OC3=O)O2)O1 [Squamostatin D, squamostatin D]
- TNFα inhibition IC50 [1, 14]: 4.08 ng/mL

Compound: CCCCCCCCCC[C@@H](O)[C@H]1CC[C@H]([C@H]2CC[C@H]([C@H](O)CCCC[C@H](O)CCCCC[C@@H](O)CC3=C[C@H](C)OC3=O)O2)O1 [10-Hydroxyasimicin, 10-hydroxyasimicin]
- TNFα inhibition IC50 [1, 14]: 3.21 ng/mL

Compound: isosquamocin
- TNFα inhibition IC50 [1, 14]: 0.080 ng/mL
- TNFα inhibition ([1]; at 100 pg/mL): 63%

Compound: CCCCCCCCCC[C@H](O)[C@H]1CC[C@H]([C@H]2CC[C@H]([C@H](O)CCCCCCCCCC[C@@H](O)CC3=C[C@H](C)OC3=O)O2)O1 [Squamocin G, squamocin G]
- TNFα inhibition IC50 [1, 14]: 0.124 ng/mL

Compound: CCCCCCCCCCC(O)C1CCC(C2CCC(C(O)CCCCCCCCCCCCC3=CC(C)OC3=O)O2)O1 (centres unmarked) [Squamocin L, squamocin L]
- TNFα inhibition IC50 [1, 14]: 0.116 ng/mL

Compound: C[C@]12C=CC(=O)C=C1CC[C@@H]1[C@@H]2[C@@H](O)C[C@@]2(C)[C@H]1CC[C@]2(O)C(=O)CO [Prednisolone]
- Relative expression of IL-1β in serum [2]: 0.848
- Relative expression of IL-4 in serum [3]: 0.831
- Relative expression of IL-13 in serum [4]: 3.120
- Relative expression of Rantes in serum [5]: 0.874
- Relative expression of IL-2 in serum [6]: 0.515
- serum TNFα level vs control ([7]; Example 16 study): significant reduction
- serum TNFα level vs control ([7]; Example 17 study): significant reduction
- Relative expression of MCP-1 in serum [8]: 0.802
- Relative expression of IFNγ in serum [9]: 1.496
- Relative expression of Eotaxin in serum [10]: 0.992
- Relative expression of IL-6 in serum [11]: 1.377
- reduction in paw volume vs control ([12]; Example 16 study): 71%
- reduction in paw volume vs control ([12]; Example 17 study): 69.2%
- Relative expression of TNFα in serum [13]: 0.754

Compound: CCCCCCCCCCCCCC[C@H]1O[C@H]1CC[C@@H]1O[C@@H]1CCCCCCCCCCC1=C[C@H](C)OC1=O [Dieposabadelin, dieposabadelin]
- TNFα inhibition IC50 [1, 14]: >5 ng/mL

Compound: CCCCCC(O)CCCCC(O)C1CCC(C2CCC(C(O)CCCCCCCCCCCCC3=CC(C)OC3=O)O2)O1 (centres unmarked) [Squamocin C, squamocin C]
- TNFα inhibition IC50 [1, 14]: 0.0249 ng/mL
- TNFα inhibition IC50 ([1]; THP-1 human monocytes): 0.0249 ng/mL
